Experimental data taken from the supplement of paper PMC10307832.

Key:
Test in all cases: relative viability (nuclei count vs DMSO), 5 days (fraction); higher = more cells survive
[1] = compound: Cc1cnc(CNC(=O)c2c(=O)c3ccc(N4CCCN(C)CC4)nc3n3c2sc2ccccc23)cn1 [CX-5461] + C[C@@H](Oc1cc(-c2cnn(C3CCNCC3)c2)cnc1N)c1c(Cl)ccc(F)c1Cl [Crizotinib] (partner 1 µM)
Procedure, shortened: (§1)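 For relative viability, nuclei counts in treated wells were divided by those in vehicle wells. Lung cancer cell lines had been pin-tool dosed in 1536-well plates the day after seeding and cultured for 5 days, then fixed and stained in one step (final 0.05% Triton X-100, 1% formaldehyde, 1 ug/ml Hoechst) and imaged at 4×. Doses were one drug alone or a fixed anchor-drug dose plus five library-drug doses (not always all listed) in √10 steps, and values are duplicate-plate medians.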

[2] = compound: Cc1cnc(CNC(=O)c2c(=O)c3ccc(N4CCCN(C)CC4)nc3n3c2sc2ccccc23)cn1 [CX-5461] + Nc1ncn([C@H]2C[C@H](O)[C@@H](CO)O2)c(=O)n1 [Decitabine] (partner 2 µM)
Procedure, shortened: as §1

[3] = compound: O=C(Nc1cc(C(F)(F)F)cc(C(F)(F)F)c1)c1cc(Cl)ccc1O [IMD-0354] + Cc1cc(Nc2cc(N3CCN(C)CC3)nc(Sc3ccc(NC(=O)C4CC4)cc3)n2)n[nH]1 [Tozasertib] (partner 0.1 µM)
Procedure, shortened: as §1

[4] = compound: O=C(Nc1cc(C(F)(F)F)cc(C(F)(F)F)c1)c1cc(Cl)ccc1O [IMD-0354] + O=C(CCCCCCC(=O)Nc1ccccc1)NO [Vorinostat] (partner 1 µM)
Procedure, shortened: as §1

Cell Line	relative viability ([1]; first compound 0.01 µM)	relative viability ([1]; first compound 0.03162 µM)	relative viability ([1]; first compound 0.3162 µM)	relative viability ([1]; first compound 1 µM)	relative viability ([2]; first compound 0.01 µM)	relative viability ([2]; first compound 0.03162 µM)	relative viability ([2]; first compound 0.1 µM)	relative viability ([2]; first compound 0.3162 µM)	relative viability ([2]; first compound 1 µM)	relative viability ([3]; first compound 0.04 µM)	relative viability ([3]; first compound 0.1265 µM)	relative viability ([3]; first compound 0.4 µM)	relative viability ([3]; first compound 1.265 µM)	relative viability ([3]; first compound 4 µM)	relative viability ([4]; first compound 0.04 µM)	relative viability ([4]; first compound 0.1265 µM)	relative viability ([4]; first compound 0.4 µM)	relative viability ([4]; first compound 1.265 µM)	relative viability ([4]; first compound 4 µM)	relative viability ([1]; first compound 0.1 µM)
NCI-H1437	1	0.948	0.885	0.791	0.603	0.556	0.545	0.51	0.435	0.457	0.394	0.289	0.262	0.224	0.842	0.81	0.432	0.251	0.263	
COR-L23	0.63	0.797	0.602	0.256	0.424	0.424	0.371	0.489	0.219	0.197	0.159	0.175	0.0719	0.101	0.419	0.466	0.403	0.0935	0.149	0.482
ABC-1	1.07	1.57	0.57	0.323	0.971		1.38	0.429	0.96	0.169	0.181	0.174	0.118	0.161	1.1	1.22	0.575		0.443	
SW 900					0.631	0.448		0.457	0.387	0.635	0.531	0.409	0.273	0.225	0.496	0.554	0.243	0.227	0.265	
NCI-H838	0.973	0.87	0.347	0.641	0.475	0.479	0.47	0.429	0.332	0.299	0.286	0.2	0.191	0.172	0.719	0.766	0.363	0.413	0.324	0.843
NCI-H1648					0.493	0.508	0.488	0.44	0.474		0.454	0.498	0.424	0.269	0.303	0.694	0.289	0.617	0.3	
A549	0.824	0.804	0.655	0.0561	0.299	0.387	0.249	0.269	0.0566											0.357
A-427	1.04	1.08		0.888	0.593	0.603	0.52	0.269	0.481	0.204	0.211	0.232	0.137	0.148	0.891	0.855	0.397	0.164	0.162	1
NCI-H1792	0.957	0.979	0.978	0.913	0.664	0.67	0.646	0.542	0.534											0.949
LCLC-97TM1	0.436	0.422		0.436	0.225	0.233	0.238	0.208	0.229	0.2	0.223	0.171	0.18	0.116	0.879	0.782	0.273	0.0926	0.123	0.286
NCI-H1703	0.783	0.852	0.663	0.343																0.77
LCLC-103H	1.12	1.08	1.04	1.08	0.684	0.743	0.705	0.766	0.707	0.597	0.509	0.425	0.449	0.222	0.79	0.706	0.539	0.364	0.287	1.13
PC-3 [JPC-3]	0.987	0.996	0.952	0.926	0.801		0.842	0.801	0.77	1	0.707	0.572	0.567	0.312	0.869	0.813	0.769	0.296	0.412	0.969
BEN	1	0.905	0.832	0.752	0.757	0.706	0.711	0.652	0.545	0.53	0.51	0.329	0.468	0.452	0.586	0.667	0.48	0.441	0.391	0.912
Calu-6	0.861	0.809	0.723	0.289																0.722
NCI-H2342					0.686	0.699	0.734	0.691	0.586	0.497	0.534	0.471	0.401	0.377	0.769	0.853	0.53	0.697	0.364	
EBC-1	0.174	0.207	0.215	0.156																0.19
NCI-H1299	0.961	0.99	0.959	0.863																0.991
NCI-H2228	0.445	0.602	0.482	0.204						0.181	0.256	0.275	0.185	0.175	0.439	0.542	0.434	0.425	0.247	0.511
NCI-H522					0.763	0.641	0.671		0.678	0.58	0.513	0.5	0.576	0.404	1.02	0.865	0.637	0.757	0.449	
IA-LM	0.968	0.813	0.836	0.33											0.89	0.737	0.397	1.11	0.681	0.821
CAL-12T	0.564	0.588	0.653	0.365						0.399	0.307	0.242	0.278	0.111	1.1	0.912	0.411	0.25	0.227	
